System: patients with advanced solid tumors
Assay: Phase I safety and tolerability
Assay type: in vivo, human
[1] = Cohort 5 (N=8), 60 mg QD 7 days + carboplatin
[2] = Cohort 6 (N=7), co-dosing 60 mg QD + carboplatin days 1–3
[3] = Cohort 6: 60 mg QD days 1–3 + carboplatin AUC5 day 1, 7 patients
[4] = Cohort 7 (N=6), co-dosing 40 mg QD + carboplatin days 1 and 2

C[C@@H]1COCCN1c1cc(C2([S@](C)(=N)=O)CC2)nc(-c2cc[nH]c3nccc2-3)n1 [ceralasertib]
1 (14) patients, n (%): TEAE Abdominal pain, Grade 1–2 [2] | TEAE Constipation, Grade 1–2 [2] | TEAE Diarrhea, Grade 1–2 [2] | TEAE Dizziness, Grade 1–2 [2] | TEAE Dyspnea, Grade 1–2 [2] | TEAE Fatigue, Grade 1–2 [2] | TEAE Hypocalcemia, Grade 1–2 [2] | TEAE Lower respiratory tract infection, Grade 1–2 [2] | TEAE Nausea, Grade ≥3 [2] | TEAE Neutropenia, Grade 1–2 [2] | TEAE Neutrophil count decreased, Grade ≥3 [2] | TEAE Pyrexia, Grade 1–2 [2] | TEAE Vomiting, Grade ≥3 [2]
0 patients, n (%): TEAE Arthralgia, Grade ≥3 [1] | TEAE Constipation, Grade ≥3 [1] | TEAE Contusion, Grade 1–2 [1] | TEAE Contusion, Grade ≥3 [1] | TEAE Cough, Grade 1–2 [1] | TEAE Cough, Grade ≥3 [1] | TEAE Decreased appetite, Grade ≥3 [1] | TEAE Diarrhea, Grade ≥3 [1] | TEAE Dizziness, Grade ≥3 [1] | TEAE Dyspnea, Grade 1–2 [1] | TEAE Dyspnea, Grade ≥3 [1] | TEAE Fatigue, Grade ≥3 [1] | TEAE Hypocalcemia, Grade ≥3 [1] | TEAE Insomnia, Grade 1–2 [1] | TEAE Insomnia, Grade ≥3 [1] | TEAE Nausea, Grade ≥3 [1] | TEAE Neutropenia, Grade 1–2 [1] | TEAE Neutropenia, Grade ≥3 [1] | TEAE Neutrophil count decreased, Grade 1–2 [1] | TEAE Platelet count decreased, Grade ≥3 [1] | TEAE Pyrexia, Grade ≥3 [1] | TEAE Upper respiratory tract infection, Grade 1–2 [1] | TEAE Upper respiratory tract infection, Grade ≥3 [1] | TEAE Vomiting, Grade 1–2 [1] | TEAE Vomiting, Grade ≥3 [1] | TEAE White blood cell count decreased, Grade 1–2 [1] | TEAE Abdominal pain, Grade ≥3 [2] | TEAE Alanine aminotransferase increased, Grade 1–2 [2] | TEAE Alanine aminotransferase increased, Grade ≥3 [2] | TEAE Any AE, Grade 1–2 [2] | TEAE Arthralgia, Grade 1–2 [2] | TEAE Arthralgia, Grade ≥3 [2] | TEAE Aspartate aminotransferase increased, Grade 1–2 [2] | TEAE Aspartate aminotransferase increased, Grade ≥3 [2] | TEAE Constipation, Grade ≥3 [2] | TEAE Contusion, Grade 1–2 [2] | TEAE Contusion, Grade ≥3 [2] | TEAE Cough, Grade 1–2 [2] | TEAE Cough, Grade ≥3 [2] | TEAE Decreased appetite, Grade 1–2 [2] | TEAE Decreased appetite, Grade ≥3 [2] | TEAE Diarrhea, Grade ≥3 [2] | TEAE Dizziness, Grade ≥3 [2] | TEAE Dyspnea, Grade ≥3 [2] | TEAE Fatigue, Grade ≥3 [2] | TEAE Hypocalcemia, Grade ≥3 [2] | TEAE Insomnia, Grade ≥3 [2] | TEAE Lower respiratory tract infection, Grade ≥3 [2] | TEAE Neutrophil count decreased, Grade 1–2 [2] | TEAE Platelet count decreased, Grade 1–2 [2] | TEAE Platelet count decreased, Grade ≥3 [2] | TEAE Pyrexia, Grade ≥3 [2] | TEAE Upper respiratory tract infection, Grade 1–2 [2] | TEAE Upper respiratory tract infection, Grade ≥3 [2] | TEAE White blood cell count decreased, Grade 1–2 [2] | TEAE Abdominal pain, Grade ≥3 [4] | TEAE Alanine aminotransferase increased, Grade ≥3 [4] | TEAE Arthralgia, Grade ≥3 [4] | TEAE Aspartate aminotransferase increased, Grade ≥3 [4]
3 (38) patients, n (%): TEAE Fatigue, Grade 1–2 [1]
2 (29) patients, n (%): TEAE Anemia, Grade 1–2 [2] | TEAE Insomnia, Grade 1–2 [2] | TEAE Thrombocytopenia, Grade 1–2 [2] | TEAE White blood cell count decreased, Grade ≥3 [2]
4 (50) patients, n (%): TEAE Nausea, Grade 1–2 [1] | TEAE Thrombocytopenia, Grade 1–2 [1]
no DLTs: Number of DLTs [3]
1 (17) patients, n (%): TEAE Alanine aminotransferase increased, Grade 1–2 [4] | TEAE Anemia, Grade 1–2 [4] | TEAE Any AE, Grade 1–2 [4] | TEAE Arthralgia, Grade 1–2 [4] | TEAE Aspartate aminotransferase increased, Grade 1–2 [4]
2 (25) patients, n (%): TEAE Arthralgia, Grade 1–2 [1] | TEAE Decreased appetite, Grade 1–2 [1] | TEAE Dizziness, Grade 1–2 [1] | TEAE Hypocalcemia, Grade 1–2 [1] | TEAE Pyrexia, Grade 1–2 [1] | TEAE Thrombocytopenia, Grade ≥3 [1]
4 (57) patients, n (%): TEAE Anemia, Grade ≥3 [2] | TEAE Thrombocytopenia, Grade ≥3 [2] | TEAE Vomiting, Grade 1–2 [2]
2 (33) patients, n (%): TEAE Abdominal pain, Grade 1–2 [4]
4 (67) patients, n (%): TEAE Anemia, Grade ≥3 [4]
1 (13) patients, n (%): TEAE Aspartate aminotransferase increased, Grade 1–2 [1] | TEAE Aspartate aminotransferase increased, Grade ≥3 [1] | TEAE Constipation, Grade 1–2 [1] | TEAE Diarrhea, Grade 1–2 [1] | TEAE Lower respiratory tract infection, Grade 1–2 [1] | TEAE Lower respiratory tract infection, Grade ≥3 [1] | TEAE Neutrophil count decreased, Grade ≥3 [1] | TEAE Platelet count decreased, Grade 1–2 [1] | TEAE White blood cell count decreased, Grade ≥3 [1]
5 (71) patients, n (%): TEAE Neutropenia, Grade ≥3 [2]
6 (86) patients, n (%): TEAE Nausea, Grade 1–2 [2]
7 (100) patients, n (%): TEAE Any AE, Grade ≥3 [2]
not tolerated beyond cycle 1: SRC decision (tolerability) [3]
5 (83) patients, n (%): TEAE Any AE, Grade ≥3 [4]
